{
  "source": "patent US9107816B2",
  "about": "“Implantable device for controlled dissolution and diffusion of low solubility drug” (TARIS BIOMEDICAL LLC, priority 2011, dated 2015)",
  "assay": "In vitro release of mitomycin C from housing module (100% MMC tablets)",
  "format": "physicochemical",
  "details": "100% MMC tablet, one face exposed, 20 mL deionized water at 37° C., replenished daily, 8 days, n=3, FIG. 43",
  "experimental": "The diameter of the tablets was either 2.1 mm or 2.6 mm with the height of 2 mm. The mass of the tablet was approximately 10 mg for 2.1 mm diameter tablet and 16 mg for 2.6 mm diameter tablet.\nHousing modules were made from segments of silicone tube and silicone adhesive. […] The surface ‘b’ of tablet 402 was surrounded by silicone tube 406 and the surface ‘c’ was in contact with silicone adhesive 408.\nSpecifically, the housing module 400 was submerged in 20 mL deionized water at 37° C., with the release medium being entirely replenished daily during the test period. The cumulative release of MMC was measure over the test period. In vitro release data is shown in FIG. 43 (n=3; the error bars indicate S.D. around the mean.) (Some error bars are not shown, i.e., when they are smaller than the symbols.).",
  "data": [
    {"smiles": "CO[C@@]12[C@H](COC(N)=O)C3=C(C(=O)C(C)=C(N)C3=O)N1C[C@@H]1N[C@@H]12", "note": "[MMC, mitomycin C]", "values": [
      {"measurement": "cumulative release of MMC (release kinetics)", "result": "near zero order release was achieved until the tablet was all eroded"}
    ]}
  ]
}
